Measured values taken from the Biogen ADME set (Fang et al. 2023).
Converted amounts (≈) assume the structure as drawn.

Conditions: for aqueous solubility: pH 6.8

Structure (SMILES) | MDR1-MDCK efflux ratio | intrinsic clearance, human liver microsomes | intrinsic clearance, rat liver microsomes | aqueous solubility | fraction unbound, human plasma | fraction unbound, rat plasma
Cc1nc(CNC(=O)c2ccc(F)c(C)c2)no1 | – | ≤ 4.74 mL/min/kg | ≤ 10.7 mL/min/kg | – | – | –
CC(C)n1cc(-c2ccc3c(c2)N(C)CC3)c2c(NS(=O)(=O)c3ccn(C)n3)ccnc21 | 2.48 | 69.5 mL/min/kg | 115 mL/min/kg | 19.4 µg/mL (≈ 43.1 µM) | – | –
O=C(CN1CCCC(c2ccc3cn[nH]c3n2)C1)N1CCCC1 (configuration not stated) | 30.2 | 9.13 mL/min/kg | 337 mL/min/kg | 38 µg/mL (≈ 121 µM) | – | –
CC(C)(CO)NCCCCn1c2ccccc2c2ccccc21 | 7.39 | 54.2 mL/min/kg | 163 mL/min/kg | 31.8 µg/mL (≈ 102 µM) | – | –
CC(C)(C)c1cnc(CN2CCC(=O)Nc3cc(F)ccc32)o1 | 1.92 | 98.6 mL/min/kg | 950 mL/min/kg | – | – | –
COc1cccc(CNc2ncc(-c3ccccc3)n2C)c1 | 0.539 | 938 mL/min/kg | 2210 mL/min/kg | 23.5 µg/mL (≈ 80 µM) | – | –
Cc1c(C(=O)NCCCN(C)C)sc2ncnc(Nc3ccc(F)cc3OC(C)C)c12 | 59.2 | ≤ 4.74 mL/min/kg | 52.4 mL/min/kg | 23.6 µg/mL (≈ 52.9 µM) | 0.0552 | 0.0926
COCCOc1ccc2c(c1)ncn2-c1ccc2cccc(N3CCC(N)CC3)c2n1 | – | 14.7 mL/min/kg | 258 mL/min/kg | 30.4 µg/mL (≈ 72.7 µM) | – | –
N#CC1(NC(=O)Cc2cc3c(ccc4ccccc43)o2)CCOCC1 | – | 87.3 mL/min/kg | 705 mL/min/kg | – | – | –
Cc1ccc(CCNc2ccc(C#N)nc2)cn1 | 0.552 | ≤ 4.74 mL/min/kg | 45.1 mL/min/kg | – | – | –
O=C(Cn1nc(Cc2ccccc2)c2ccccc2c1=O)NCc1ncc[nH]1 | 92.6 | 50.9 mL/min/kg | 3330 mL/min/kg | – | – | –
O=C(NCc1cccc(O)c1)Nc1ccccc1F | – | ≤ 4.74 mL/min/kg | 58.9 mL/min/kg | 36.4 µg/mL (≈ 140 µM) | – | –
O=C1CNC(=O)N1CCCN1CCc2sccc2C1 | 1.52 | ≤ 4.74 mL/min/kg | 28.6 mL/min/kg | 51.2 µg/mL (≈ 183 µM) | – | –
N#CN1CCC[C@H](n2nc(-c3ccc(Oc4ccc(F)cc4F)cc3)c(C(N)=O)c2N)C1 | 33 | ≤ 4.74 mL/min/kg | 68.2 mL/min/kg | 35.9 µg/mL (≈ 81.9 µM) | – | –
COC[C@@H](O)Cn1c(C)nc2ccccc21 | 1.43 | ≤ 4.74 mL/min/kg | ≤ 10.7 mL/min/kg | – | – | –
CC(C)(O)Cn1nc(-c2ccccc2)c2c(Cl)c(-c3ccccc3)nnc21 | 0.725 | ≤ 4.74 mL/min/kg | 85.5 mL/min/kg | – | – | –
COc1cccc(NC(=O)c2c([O-])n(-c3cccc(OC)c3)n[n+]2C)c1 | 0.637 | – | – | 0.19 µg/mL (≈ 0.536 µM) | – | –
O=C(O)c1cc(/C=C/c2csnn2)nc2ccccc12 | 2.08 | ≤ 4.74 mL/min/kg | ≤ 10.7 mL/min/kg | 15.7 µg/mL (≈ 55.4 µM) | – | –
Cc1cccc2cc(C(=O)NCCCn3nnc4ccccc43)n(C)c12 | 0.886 | 325 mL/min/kg | 1410 mL/min/kg | – | – | –
Cc1noc(Cc2ccc(C)c(O)c2)n1 | – | 10.7 mL/min/kg | 52.2 mL/min/kg | – | – | –
CN1C(=O)N[C@H](Cc2c[nH]c3c(Cl)cccc23)C1=O | – | 8.58 mL/min/kg | 77.1 mL/min/kg | – | – | –
Cc1cccc(OC[C@@]2(O)CN(C[C@]3(O)CC[C@@H](C(C)(C)C)CC3)CC[C@@H]2O)c1 | 1.33 | 234 mL/min/kg | 1790 mL/min/kg | – | – | –
CC(=O)NC1(c2ccc(F)cc2)CCN(Cc2ccc(OC3CCCC3)cc2)CC1 | – | 24.8 mL/min/kg | 346 mL/min/kg | 72.4 µg/mL (≈ 176 µM) | – | –
O=C(NCc1ccccc1)c1ccc(NS(=O)(=O)c2ccc(C3CCCCC3)cc2)cc1 | 2.69 | 81 mL/min/kg | 402 mL/min/kg | 1.57 µg/mL (≈ 3.5 µM) | – | –

More lines, now with the values ahead:

MDR1-MDCK efflux ratio | intrinsic clearance, human liver microsomes | intrinsic clearance, rat liver microsomes | aqueous solubility | fraction unbound, human plasma | fraction unbound, rat plasma | Structure (SMILES)
0.656 | 20.2 mL/min/kg | 263 mL/min/kg | 69.4 µg/mL (≈ 217 µM) | – | – | COc1ccc(F)c(CN2CCC(Cc3noc(C)n3)CC2)c1
0.65 | – | – | 0.35 µg/mL (≈ 1.06 µM) | – | – | Cc1cccc(CNc2cccc3c2CCN(S(C)(=O)=O)C3)c1
5.33 | 57.8 mL/min/kg | 868 mL/min/kg | 50.5 µg/mL (≈ 153 µM) | – | – | CSCC(=O)N1CCN(C(=O)CSC)C2(CCCCC2)C1
47.8 | – | – | – | – | – | CN[C@@H](C)C(=O)N[C@H](C(=O)N1CCC[C@H]1C(=O)Nc1snnc1-c1ccccc1)C1CCCCC1
13.9 | ≤ 4.74 mL/min/kg | 19 mL/min/kg | – | – | – | NC(=O)c1cccc(Cn2cnc3c(oc4ccccc43)c2=O)c1
15.9 | 139 mL/min/kg | 919 mL/min/kg | 29.6 µg/mL (≈ 87.8 µM) | – | – | CC(=O)Nc1cccc(CN2CCCN(C(C)=O)c3ccccc32)c1
0.904 | ≤ 4.74 mL/min/kg | 76.4 mL/min/kg | 21 µg/mL (≈ 85.5 µM) | – | – | CC1(c2ccn[nH]2)CCN(Cc2ccco2)CC1
1.28 | 29.5 mL/min/kg | 434 mL/min/kg | 37 µg/mL (≈ 125 µM) | – | – | CCNc1ccnc(N(C)Cc2nc3ccccc3n2C)n1
0.445 | – | – | 0.2 µg/mL (≈ 0.539 µM) | – | – | O=c1[nH]c2nc(N3CCc4ccccc4C3)ncc2c(=O)n1-c1ccccc1
0.563 | 11.8 mL/min/kg | 421 mL/min/kg | 4.2 µg/mL (≈ 14.6 µM) | – | – | CCCCOc1ccc(C(=O)NCc2cc(C)on2)cc1
– | 10.4 mL/min/kg | 12.7 mL/min/kg | – | – | – | N#Cc1cnc2ccccc2c1OCCO
2.67 | 13.8 mL/min/kg | 318 mL/min/kg | 32.7 µg/mL (≈ 116 µM) | – | – | Cc1cnn(CC2CC2)c1NC(=O)/C=C/c1ccccc1
0.776 | ≤ 4.74 mL/min/kg | 162 mL/min/kg | – | – | – | O=c1c2cccnc2ncn1[C@H]1CCN(Cc2ccccc2)C1
– | 14.6 mL/min/kg | 372 mL/min/kg | – | – | – | Nc1c(-c2ccc(F)cc2)ncn1Cc1ccccc1
– | – | – | 0.13 µg/mL (≈ 0.437 µM) | – | – | COc1ccccc1-c1csc(-n2ncc(C#N)c2N)n1
3.06 | 14.9 mL/min/kg | 95.1 mL/min/kg | 1.95 µg/mL (≈ 4.15 µM) | – | – | CNC(=O)c1ccccc1Nc1nc(Nc2ccc(N3CCOCC3)cc2OC)ncc1Cl
0.816 | 26.3 mL/min/kg | 403 mL/min/kg | – | – | – | CC(C)c1nsc(N2CCC(Nc3cccnc3)CC2)n1
29.2 | 150 mL/min/kg | 1300 mL/min/kg | – | – | – | Cc1cc(C)cc(OCCN(C)C(=O)NCCN2CCCCC2=O)c1
